Source: patent US11834460B2, “Imide-based modulators of proteolysis and associated methods of use” (YALE UNIVERSITY, priority 2018, dated 2023)

system: c-Myc; test: c-Myc ELISA assay protocol in 22RV-1 cells; type: cell-based, human; details: 18 h, read-out: cMyc IC50
Protocol: In each bioassay, cells were treated with varying amounts of compounds encompassed by the present disclosure, as shown in Table 1. The degradation of the following proteins were evaluated in this study: TANK-binding kinase 1 (TBK1), estrogen receptor α (ERα), bromodomain-containing protein 4 (BRD4), androgen receptor (AR), and c-Myc.
5. c-Myc ELISA Assay Protocol
22RV-1 cells were purchased from ATCC and cultured in RPMI+10% FBS media. Cells were harvested using trypsin (Gibco #25200-114), counted and seeded at 30,000 cells/well at a volume of 75 μL/well in RPMI +10% FBS media in 96-well plates. The cells were dosed with compounds diluted in 0.1% DMSO, incubated for 18 h then washed and lysed in 50 uL RIPA buffer (50 mM Tris pH8, 150 mM NaCl, 1% Tx-100, 0.1% SDS, 0.5% sodium deoxycholate) supplemented with protease and phosphatase inhibitors. The lysates were clarified at 4000 rpm at 4° C. for 10 minutes then aliquots were added into a 96-well ELISA plate of Novex Human c-myc ELISA kit from Life Technologies Catalog #KHO2041. 50 ul of c-Myc Detection antibody was added into every well, the plates incubated at room temperature for 3 hrs, then washed with ELISA wash buffer. 100 uL of the anti-rabbit IgG-HRP secondary antibody was added to each well and incubated at room temperature for 30 minutes. The plates were washed with ELISA wash buffer, 100 μL TMB added to each well, and then monitored every 5 minutes for a color change. 100 μL of stop solution is added and the plates read at 450 nm.

| Structure (SMILES) | IC50 |
| --- | --- |
| Cc1sc2c(c1C)C(c1ccc(Cl)cc1)=N[C@@H](CC(=O)N[C@H]1CCN(C(=O)c3ccc(NCCNc4cccc5c4C(=O)N(C4CCC(=O)NC4=O)C5=O)cc3)C1)c1nnc(C)n1-2 (stereo partly drawn) [Compound 52, 2-[(9S)-7-(4-chlorophenyl)-4,5,13-trimethyl-3-thia-1,8,11,12-tetraazatricyclo [8.3.0.0^2,^6]trideca-2(6),4,7,10,12-pentaen-9-yl]-N-[(3S)-1-{4-[(2-{[2-(2,6-dioxopiperidin-3-yl)-1,3-dioxo-2,3-dihydro-1H-isoindol-4-yl]amino}ethyl)amino]benzoyl}pyrrolidin-3-yl]acetamide] | > 50 nM |
| Cc1sc2c(c1C)C(c1ccc(Cl)cc1)=N[C@@H](CC(=O)NCCCCNc1cccc3c1CN(C1CCC(=O)NC1=O)C3=O)c1nnc(C)n1-2 (stereo partly drawn) [Compound 47, 2-[(9S)-7-(4-chlorophenyl)-4,5,13-trimethyl-3-thia-1,8,11,12-tetraazatricyclo [8.3.0.0^2,^6]trideca-2(6),4,7,10,12-pentaen-9-yl]-N-(4-{[2-(2,6-dioxopiperidin-3-yl)-1-oxo-2,3-dihydro-1H-isoindol-4-yl]amino}butyl) acetamide] | > 50 nM |
| Cc1sc2c(c1C)C(c1ccc(Cl)cc1)=N[C@@H](CC(=O)N[C@H]1CCN(C(=O)c3ccc(OCCNc4cccc5c4CN(C4CCC(=O)NC4=O)C5=O)cc3)C1)c1nnc(C)n1-2 (stereo partly drawn) [Compound 59, 2-[(9S)-7-(4-chlorophenyl)-4,5,13-trimethyl-3-thia-1,8,11,12-tetraazatricyclo [8.3.0.0^2,^6]trideca-2(6),4,7,10,12-pentaen-9-yl]-N-[(3S)-1-[4-(2-{[2-(2,6-dioxopiperidin-3-yl)-1-oxo-2,3-dihydro-1H-isoindol-4-yl]amino}ethoxy)benzoyl]pyrrolidin-3-yl]acetamide] | > 50 nM |
| Cc1sc2c(c1C)C(c1ccc(Cl)cc1)=N[C@@H](CC(=O)NCCCNc1cccc3c1CN(C1CCC(=O)NC1=O)C3=O)c1nnc(C)n1-2 (stereo partly drawn) [Compound 46, 2-[(9S)-7-(4-chlorophenyl)-4,5,13-trimethyl-3-thia-1,8,11,12-tetraazatricyclo [8.3.0.0^2,^6]trideca-2(6),4,7,10,12-pentaen-9-yl]-N-(3-{[2-(2,6-dioxopiperidin-3-yl)-1-oxo-2,3-dihydro-1H-isoindol-4-yl]amino}propyl) acetamide] | > 50 nM |
| Cc1sc2c(c1C)C(c1ccc(Cl)cc1)=N[C@@H](CC(=O)NCCOCCOCCNc1cccc3c1C(=O)N(C1CCC(=O)NC1=O)C3=O)c1nnc(C)n1-2 (stereo partly drawn) [Compound 37, 2-[(9S)-7-(4-chlorophenyl)-4,5,13-trimethyl-3-thia-1,8,11,12-tetraazatricyclo [8.3.0.0^2,^6]trideca-2(6),4,7,10,12-pentaen-9-yl]-N-{2-[2-(2-{[2-(2,6-dioxopiperidin-3-yl)-1,3-dioxo-2,3-dihydro-1H-isoindol-4-yl]amino}ethoxy)ethoxy]ethyl} acetamide] | < 50 nM |
| Cc1sc2c(c1C)C(c1ccc(Cl)cc1)=N[C@@H](CC(=O)Nc1ccc(OCCCCOCCCNc3cccc4c3C(=O)N(C3CCC(=O)NC3=O)C4=O)cc1F)c1nnc(C)n1-2 (stereo partly drawn) [Compound 33, 2-((9S)-7-(4-chlorophenyl)-4,5,13-trimethyl-3-thia-1,8,11,12-tetraazatricyclo [8.3.0.02,6]trideca-2(6),4,7,10, 12-pentaen-9-yl)-n-(4-(4-(3-((2-(2,6-dioxopiperidin-3-yl)-1,3-dioxo-2,3-dihydro-1h-isoindol-4-yl)amino)propoxy)butoxy)-2-fluorophenyl) acetamide] | < 50 nM |
| Cc1sc2c(c1C)C(c1ccc(Cl)cc1)=N[C@@H](CC(=O)NCCCOCCCNc1cccc3c1C(=O)N(C1CCC(=O)NC1=O)C3=O)c1nnc(C)n1-2 (stereo partly drawn) [Compound 24, 2-((9S)-7-(4-chlorophenyl)-4,5,13-trimethyl-3-thia-1,8,11,12-tetraazatricyclo [8.3.0.02,6]trideca-2(6),4,7,10, 12-pentaen-9-yl)-N-(3-(3-((2-(2,6-dioxopiperidin-3-yl)-1,3-dioxo-2,3-dihydro-1H-isoindol-4-yl)amino)propoxy)propyl)acetamide] | < 50 nM |
| Cc1sc2c(c1C)C(c1ccc(Cl)cc1)=N[C@@H](CC(=O)N[C@@H](C)c1ccc(OCCCCNc3cccc4c3C(=O)N(C3CCC(=O)NC3=O)C4=O)cc1)c1nnc(C)n1-2 (stereo partly drawn) [Compound 23, 2-((9S)-7-(4-chlorophenyl)-4,5,13-trimethyl-3-thia-1,8,11,12-tetraazatricyclo [8.3.0.02,6]trideca-2(6),4,7,10, 12-pentaen-9-yl)-N-((1S)-1-(4-(4-((2-(2,6-dioxopiperidin-3-yl)-1,3-dioxo-2,3-dihydro-1H-isoindol-4-yl)amino)butoxy)phenyl)ethyl) acetamide] | > 50 nM |

Continued, values first:

| IC50 | Structure (SMILES) |
| --- | --- |
| < 50 nM | Cc1sc2c(c1C)C(c1ccc(Cl)cc1)=N[C@@H](CC(=O)N[C@@H](C)c1ccc(OCCOCCNc3cccc4c3C(=O)N(C3CCC(=O)NC3=O)C4=O)c(F)c1)c1nnc(C)n1-2 (stereo partly drawn) [Compound 48, 2-[(9S)-7-(4-chlorophenyl)-4,5,13-trimethyl-3-thia-1,8,11,12-tetraazatricyclo [8.3.0.0^2,^6]trideca-2(6),4,7,10,12-pentaen-9-yl]-N-[(1S)-1-{4-[2-(2-{[2-(2,6-dioxopiperidin-3-yl)-1,3-dioxo-2,3-dihydro-1H-isoindol-4-yl]amino}ethoxy)ethoxy]-3-fluorophenyl}ethyl]acetamide] |
| > 50 nM | Cc1sc2c(c1C)C(c1ccc(Cl)cc1)=N[C@@H](CC(=O)NCCOCCNc1cccc3nc(C)n(C4CCC(=O)NC4=O)c(=O)c13)c1nnc(C)n1-2 (stereo partly drawn) [Compound 53, 2-[(9S)-7-(4-chlorophenyl)-4,5,13-trimethyl-3-thia-1,8,11,12-tetraazatricyclo [8.3.0.0^2,^6]trideca-2(6),4,7,10,12-pentaen-9-yl]-N-[2-(2-{[3-(2,6-dioxopiperidin-3-yl)-2-methyl-4-oxo-3,4-dihydroquinazolin-5-yl]amino}ethoxy)ethyl]acetamide] |
| < 50 nM | Cc1sc2c(c1C)C(c1ccc(Cl)cc1)=N[C@H](CC(=O)Nc1ccc(OCCOCCOCCOCCNc3cccc4c3CN(C3CCC(=O)NC3=O)C4=O)cc1)c1nnc(C)n1-2 (stereo partly drawn) [Compound 35, 2-((9R)-7-(4-chlorophenyl)-4,5,13-trimethyl-3-thia-1,8,11,12-tetraazatricyclo [8.3.0.02,6]trideca-2(6),4,7,10, 12-pentaen-9-yl)-N-(4-((1-(2-(2,6-dioxopiperidin-3-yl)-1-oxo-2,3-dihydro-1H-isoindol-4-yl)-4,7,10-trioxa-1-azadodecan-12-yl)oxy)phenyl) acetamide] |
| > 50 nM | Cc1sc2c(c1C)C(c1ccc(Cl)cc1)=N[C@@H](CC(=O)NCCCCNc1cccc3c1C(=O)N(C1CCC(=O)NC1=O)C3=O)c1nnc(C)n1-2 (stereo partly drawn) [Compound 43, 2-[(9S)-7-(4-chlorophenyl)-4,5,13-trimethyl-3-thia-1,8,11,12-tetraazatricyclo [8.3.0.0^2,^6]trideca-2(6),4,7,10,12-pentaen-9-yl]-N-(4-{[2-(2,6-dioxopiperidin-3-yl)-1,3-dioxo-2,3-dihydro-1H-isoindol-4-yl]amino}butyl) acetamide] |
| > 50 nM | Cc1sc2c(c1C)C(c1ccc(Cl)cc1)=N[C@@H](CC(=O)N[C@H](C)c1cccc(OCCNc3cccc4c3CN(C3CCC(=O)NC3=O)C4=O)c1)c1nnc(C)n1-2 (stereo partly drawn) [Compound 60, 2-[(9S)-7-(4-chlorophenyl)-4,5,13-trimethyl-3-thia-1,8,11,12-tetraazatricyclo [8.3.0.0^2,^6]trideca-2(6),4,7,10,12-pentaen-9-yl]-N-[(1R)-1-[3-(2-{[2-(2,6-dioxopiperidin-3-yl)-1-oxo-2,3-dihydro-1H-isoindol-4-yl]amino}ethoxy)phenyl]ethyl] acetamide] |
| < 50 nM | Cc1sc2c(c1C)C(c1ccc(Cl)cc1)=N[C@@H](CC(=O)Nc1cnc(-c3ccc(OCCCNc4cccc5c4C(=O)N(C4CCC(=O)NC4=O)C5=O)cc3)nc1)c1nnc(C)n1-2 (stereo partly drawn) [Compound 31, 2-((9S)-7-(4-chlorophenyl)-4,5,13-trimethyl-3-thia-1,8,11,12-tetraazatricyclo [8.3.0.02,6]trideca-2(6),4,7,10, 12-pentaen-9-yl)-N-(2-(4-(3-((2-(2,6-dioxopiperidin-3-yl)-1,3-dioxo-2,3-dihydro-1H-isoindol-4-yl)amino)propoxy)phenyl)pyrimidin-5-yl)acetamide] |
| < 50 nM | Cc1sc2c(c1C)C(c1ccc(Cl)cc1)=N[C@@H](CC(=O)N[C@H](C)c1ccc(OCCOCCNc3cccc4c3CN(C3CCC(=O)NC3=O)C4=O)cc1)c1nnc(C)n1-2 (stereo partly shown) [Compound 38] |
| < 50 nM | Cc1sc2c(c1C)C(c1ccc(Cl)cc1)=N[C@@H](CC(=O)NCCOCCNc1cccc3c1C(=O)N(C1CCC(=O)NC1=O)C3=O)c1nnc(C)n1-2 (stereo partly drawn) [Compound 27, 2-((9S)-7-(4-chlorophenyl)-4,5,13-trimethyl-3-thia-1,8,11,12-tetraazatricyclo [8.3.0.02,6]trideca-2(6),4,7,10,12-pentaen-9-yl)-N-(2-(2-((2-(2,6-dioxopiperidin-3-yl)-1,3-dioxo-2,3-dihydro-1H-isoindol-4-yl)amino)ethoxy)ethyl)acetamide] |
